The source made the active and inactive calls. The rule behind the calls is not given here.
Tested on: rodent carcinogenicity bioassays, tumor incidence
Test: CCRIS carcinogenicity studies
How it was run: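 NCI-built, expert-reviewed records of carcinogenicity and related test outcomes (mutagenicity, tumor promotion/inhibition) compiled from published and report sources, historical span 1985-2011, not updated.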

COC(=O)C(C)(C)Oc1ccc(-c2ccc(Cl)cc2)cc1
carcinogen call (Species: RAT, Strain/Sex: F344/MALE, Route: ORAL, Dose: 0.1% IN DIET FOR 75 WK, Tumor Site: Type of Lesion: LIVER: HEPATOCELLULAR CARCINOMA): active; positive

O=C(O)CCl
carcinogen call (Species: MOUSE, Strain/Sex: B6C3F1/FEMALE, Route: GAVAGE, Dose: 0, 50, 100 MG/KG IN DEIONIZED WATER 5 D/WK FOR 104 WK (STUDY DURATION: 104 WK), Dose: 0, 50, 100 MG/KG IN DEIONIZED WATER 5 D/WK FOR 104 WK (STUDY DURATION: 104 WK)): inactive; negative
carcinogen call (Species: MOUSE, Strain/Sex: B6C3F1/MALE, Route: GAVAGE, Dose: 0, 50, 100 MG/KG IN DEIONIZED WATER 5 D/WK FOR 104 WK (STUDY DURATION: 104 WK), Dose: 0, 50, 100 MG/KG IN DEIONIZED WATER 5 D/WK FOR 104 WK (STUDY DURATION: 104 WK)): inactive; negative
carcinogen call (Species: RAT, Strain/Sex: F344/FEMALE, Route: GAVAGE, Dose: 0, 15, 30 MG/KG IN DEIONIZED WATER 5 D/WK FOR 104 WK (STUDY DURATION: 105 WK), Dose: 0, 15, 30 MG/KG IN DEIONIZED WATER 5 D/WK FOR 104 WK (STUDY DURATION: 105 WK)): inactive; negative
carcinogen call (Species: RAT, Strain/Sex: F344/MALE, Route: GAVAGE, Dose: 0, 15, 30 MG/KG IN DEIONIZED WATER 5 D/WK FOR 104 WK (STUDY DURATION: 105 WK), Dose: 0, 15, 30 MG/KG IN DEIONIZED WATER 5 D/WK FOR 104 WK (STUDY DURATION: 105 WK)): inactive; negative
carcinogen call (Species: RAT, Strain/Sex: F344/MALE, Route: ORAL, Dose: O, 0.05, 0.5, 2 G/L IN DRINKING WATER FOR 104 WK, THE 2.5 G/L CONCENTRATION WAS LOWERED TO 1.5 G/L AT 8 WK THEN TO 1 G/L, Dose: O, 0.05, 0.5): inactive; negative

CCCc1cc(=O)[nH]c(=S)[nH]1
carcinogen call (Species: HAMSTER, Route: ORAL, Tumor Site: Type of Lesion: THYROID GLAND): active; positive
carcinogen call (Species: MOUSE, Route: ORAL, Tumor Site: Type of Lesion: PITUITARY GLAND, THYROID GLAND): active; positive
carcinogen call (Species: RAT, Route: ORAL, Tumor Site: Type of Lesion: THYROID GLAND): active; positive

CCCCOC(=O)[C@@H](C)Oc1ccc(Oc2ccc(C#N)cc2F)cc1
carcinogen call (Species: Mouse, Strain/Sex: ICR (Crj:CD-1)/(Male (52/group), Route: Oral, Dose: 0, 3, 10, 100 ppm (0; 0.31; 0.99; 10.1 mg/kg/day) of 97.1% pure cyhalofop-butyl in diet for 78 wk, Dose: 0, 3, 10, 100 ppm (0; 0.31; 0.99; 10.1 mg/kg/day) of 97.1% pure cyhalofop-butyl in diet for 78 wk): inactive; negative
carcinogen call (Species: Mouse, Strain/Sex: ICR (Crj:CD-1)/Female (52/group), Route: Oral, Dose: 0, 3, 10, 100 ppm (0; 0.29; 0.99; 10.3 mg/kg/day) of 97.1% pure cyhalofop-butyl in diet for 78 wk, Dose: 0, 3, 10, 100 ppm (0; 0.29; 0.99; 10.3 mg/kg/day) of 97.1% pure cyhalofop-butyl in diet for 78 wk): inactive; negative

CN(C)C(=S)SSC(=S)N(C)C
carcinogen call (Species: DOG, Strain/Sex: BEAGLE/FEMALE, Route: ORAL, Dose: 0, 0.4, 4, 40 MG/KG/D ADMINISTERED IN GELATIN CAPSULES 7 D/WK FOR 104 WK (STUDY DURATION: 104 WK), Dose: 0, 0.4, 4, 40 MG/KG/D ADMINISTERED IN GELATIN CAPSULES 7 D/WK FOR 104 WK (STUDY DURATION: 104 WK)): inactive; negative
carcinogen call (Species: DOG, Strain/Sex: BEAGLE/MALE, Route: ORAL, Dose: 0, 0.4, 4, 40 MG/KG/D ADMINISTERED IN GELATIN CAPSULES 7 D/WK FOR 104 WK (STUDY DURATION: 104 WK), Dose: 0, 0.4, 4, 40 MG/KG/D ADMINISTERED IN GELATIN CAPSULES 7 D/WK FOR 104 WK (STUDY DURATION: 104 WK)): inactive; negative
carcinogen call (Species: MOUSE, Strain/Sex: SWISS/FEMALE, Route: DERMAL, Dose: 0, 100 MG/KG BW IN 100 µL DMSO 3/WK FOR 52 WK (STUDY DURATION: 52 WK)): inactive; negative
carcinogen call (Species: MOUSE, Strain/Sex: SWISS/MALE, Route: 0, 100 MG/KG BW IN 100 µL DMSO 3/WK FOR 52 WK (STUDY DURATION: 52 WK)): inactive; negative
carcinogen call (Species: RAT, Strain/Sex: F344/FEMALE, Route: ORAL, Dose: 0, 0.05, 0.1% IN DIET FOR 104 WK (STUDY DURATION: 112 WK), Dose: 0, 0.05, 0.1% IN DIET FOR 104 WK (STUDY DURATION: 112 WK)): inactive; negative
carcinogen call (Species: RAT, Strain/Sex: F344/MALE, Route: ORAL, Dose: 0, 0.05, 0.1% IN DIET FOR 104 WK (STUDY DURATION: 112 WK), Dose: 0, 0.05, 0.1% IN DIET FOR 104 WK (STUDY DURATION: 112 WK)): inactive; negative
carcinogen call (Species: RAT, Strain/Sex: WISTAR/FEMALE, Route: ORAL, Dose: 0, 3, 30, 300 PPM IN DIET FOR 104 WK (STUDY DURATION: 104 WK), Dose: 0, 3, 30, 300 PPM IN DIET FOR 104 WK (STUDY DURATION: 104 WK)): inactive; negative
carcinogen call (Species: RAT, Strain/Sex: WISTAR/MALE, Route: ORAL, Dose: 0, 3, 30, 300 PPM IN DIET FOR 104 WK (STUDY DURATION: 104 WK), Dose: 0, 3, 30, 300 PPM IN DIET FOR 104 WK (STUDY DURATION: 104 WK)): inactive; negative

Oc1cc(O)c2c(c1)O[C@H](c1ccc(O)c(O)c1)[C@@H](O)C2
carcinogen call (Species: RAT, Strain/Sex: F344/FEMALE, Route: ORAL, Dose: 0, 2% IN DIET FOR 104 WK (STUDY DURATION: 104 WK), Tumor Site: Type of Lesion: GLANDULAR STOMACH: ADENOCARCINOMA): active; positive
carcinogen call (Species: RAT, Strain/Sex: F344/MALE, Route: ORAL, Dose: 0, 2% IN DIET FOR 104 WK (STUDY DURATION: 104 WK), Tumor Site: Type of Lesion: GLANDULAR STOMACH: ADENOCARCINOMA): active; positive

Cc1ncc[nH]1
carcinogen call (Species: MOUSE, Strain/Sex: B6C3F1/FEMALE, Route: ORAL (DIET), Dose: 0, 625, 1250, 2500 PPM FOR 105 WKS (STUDY DURATION: 105 WKS), Dose: 0, 625, 1250, 2500 PPM FOR 105 WKS (STUDY DURATION: 105 WKS), Tumor Site: Type of Lesion: LIVER: HEPATOCELLULAR ADENOMA): active; positive
carcinogen call (Species: MOUSE, Strain/Sex: B6C3F1/MALE, Route: ORAL (DIET), Dose: 0, 625, 1250, 2500 PPM FOR 105 WKS (STUDY DURATION: 105 WKS), Dose: 0, 625, 1250, 2500 PPM FOR 105 WKS (STUDY DURATION: 105 WKS), Tumor Site: Type of Lesion: LIVER: HEPATOCELLULAR ADENOMA OR CARCINOMA, THYROID: FOLLICULAR CELL ADENOMA): active; positive
carcinogen call (Species: RAT, Strain/Sex: F344/N/FEMALE, Route: ORAL (DIET), Dose: 0, 1000, 2500, 5000 PPM FOR 106 WKS (STUDY DURATION: 106 WKS), Dose: 0, 1000, 2500, 5000 PPM FOR 106 WKS (STUDY DURATION: 106 WKS), Tumor Site: Type of Lesion: THYROID: FOLLICULAR CELL ADENOMA OR CARCINOMA): active; positive
carcinogen call (Species: RAT, Strain/Sex: F344/N/MALE, Route: ORAL (DIET), Dose: 0, 300, 1000, 3000 PPM FOR 106 WKS (STUDY DURATION: 106 WKS), Dose: 0, 300, 1000, 3000 PPM FOR 106 WKS (STUDY DURATION: 106 WKS)): inactive; negative

C=Cc1ccncc1
carcinogen call (Species: MOUSE, Strain/Sex: STRAIN-A/FEMALE, Route: INTRAPERITONEAL, Dose: 0, 10 UMOL IN 0.1 ML OLIVE OIL 3/WK FOR 20 DOSES (TOTAL DOSE: 200 UMOL) (STUDY DURATION: 27 WK)): inactive; negative

[N-]=[N+]=CC(=O)OC[C@H](N)C(=O)O
carcinogen call (Species: RAT, Strain/Sex: WISTAR/MALE,FEMALE, Route: INTRAPERITONEAL, Dose: 5 MG/KG 1-2 TIMES PER WK FOR 6 MO, Tumor Site: Type of Lesion: KIDNEY: PAPILLARY EPITHELIAL TUMOR, CLEAR CELL TUMOR, TUBULAR ADENOMA, PANCREAS: ADENOCARCINOMA): active; positive

O[C@@H]1C=CC=C[C@H]1O
carcinogen call (Species: MOUSE, Strain/Sex: SWISS/FEMALE, Route: INTRAPERITONEAL, Dose: 0, 10, 50 UMOL ADMINISTERED AS 3 UNEQUAL DOSES (1/7, 2/7, AND 4/7 OF THE TOTAL DOSE) OVER A 2-WK PERIOD (STUDY DURATION:, Dose: 0, 10, 50 UMOL ADMINISTERED AS 3 UNEQUAL DOSES (1/7, 2/7, AND 4/7 OF THE TOTAL DOSE) OVER A 2-WK PERIOD (STUDY DURATION:): inactive; negative
carcinogen call (Species: MOUSE, Strain/Sex: SWISS/MALE, Route: INTRAPERITONEAL, Dose: 0, 10, 50 UMOL ADMINISTERED AS 3 UNEQUAL DOSES (1/7, 2/7, AND 4/7 OF THE TOTAL DOSE) OVER A 2-WK PERIOD (STUDY DURATION:, Dose: 0, 10, 50 UMOL ADMINISTERED AS 3 UNEQUAL DOSES (1/7, 2/7, AND 4/7 OF THE TOTAL DOSE) OVER A 2-WK PERIOD (STUDY DURATION:): inactive; negative

From PubChem BioAssay AID1259411 (Chemical Carcinogenesis Research Information System (CCRIS), 2018)
